# Target: Serotonin 3 (5-HT3) receptor (Rattus norvegicus) (UniProt P35563+Q9JJ16)
# Test: Antagonistic activity against 5-hydroxytryptamine 3 receptor as inhibition of 5-HT-induced bradycardia (von Bezold-jarisch reflex) in anesthetized rat
# Type: functional
row,SMILES,ID50 [mg/kg]
1,COc1cc(N)ccc1C(=O)NC1CC2CCC(C1)N2C (stereo unspecified),0.016
2,CN1C2CCC1CC(n1cnc3cc(N)c(Cl)cc3c1=O)C2 (stereo unspecified),0.33
3,Nc1cc2nnn(C3CN4CCC3CC4)c(=O)c2cc1Cl (stereo unspecified),0.0036
4,CN1[C@@H]2CC[C@H]1C[C@@H](OC(=O)c1cc(Cl)cc(Cl)c1)C2,0.035
5,CN1C2CCC1CC(NC(=O)c1ccc(N)c(Cl)c1)C2 (stereo unspecified),0.036
6,CN1C2CCC1CC(n1nnc3cc([N+](=O)[O-])c(Cl)cc3c1=O)C2 (stereo unspecified),0.013
7,CN1C2CCC1CC(n1nnc3ccccc3c1=O)C2 (stereo unspecified),> 0.05
8,CN1C2CCC1CC(n1nnc3ccc(Cl)cc3c1=O)C2 (stereo unspecified),0.012
9,CN1[C@@H]2CC[C@H]1C[C@@H](OC(=O)c1c[nH]c3ccccc13)C2,0.0014
10,COc1ccc(Cl)cc1C(=O)NC1CC2CCC(C1)N2C (stereo unspecified),0.015
11,COc1cc(N)c(Cl)cc1C(=O)NC1CC2CCC(C1)N2C (stereo unspecified),0.0008

# — ChEMBL document CHEMBL1125070, “Benzotriazinones as "virtual ring" mimics of o-methoxybenzamides: novel and potent 5-HT3 receptor antagonists” (J Med Chem, 1990)
